{"source": "paper PMC8418037", "about": "“Immunomodulatory effect of standardized C. asiatica extract on a promotion of regulatory T cells in rats” (BMC Complementary Medicine and Therapies, 2021)", "key": {"[1]": {"system": "multidrug-resistant protein 2", "design": "method as in PMID 24091240", "settings": "affecting the level of absorbed compound; cited from earlier work"}, "[2]": {"settings": "rat, in vivo", "experimental": "Rats, weighing more than 400 g, were put in metabolic cages and fasted overnight with free access to water before experiments. […] The intravenous preparations were freshly dissolved in 20% DMSO/NSS for injection. The oral preparations were freshly prepared by suspending the test compound in 0.5% CMC. To reduce pain and injury during drug administration and blood collection, rats were anesthetized with 5% isoflurane by chamber induction. Serial blood samples (300 μL) were collected at 0, 5, 15, and 30 min, and at 1, 2, 4, 8, and 24 h after dosing. Blood samples were centrifuged at 5000 g for 10 min, and plasma was collected and stored at − 20 °C until analysis. Determination of aspartate transaminase (AST), alanine transaminase (ALT), and creatinine levels were performed at pre-dosing, and at 0 h and 24 h after dosing. Creatinine level was determined by enzymatic Roche Cobas 6000 analyzer. In this enzymatic method creatinine is converted to creatine under the activity of creatininase. Creatine is then acted upon by creatinase to form sarcosine and urea. Sarcosine oxidase converts sarcosine to glycine and hydrogen peroxide, and the hydrogen peroxide reacts with chromophore in the presence of peroxidase to produce a color product that is measured at 546 nm (secondary wavelength = 700 nm). This is an endpoint reaction that agrees well with recognized HPLC methods, and it has the advantage over Jaffe picric acid-based methods that are susceptible to interferences from non-creatinine chromogens. For tissue collection, the rats was euthanized with isoflurane after oral dosing the test compound at 100 mg/kg for 7 days. After the dead was confirmed, spleen and blood were immediately collected, washed with normal saline solution, and send to immunology laboratory for further experiments. The control group received oral gavage of 0.5% CMC as vehicle control. All animal procedures were complied with the ethical principles and guidelines for the use of animals (National Research Council of Thailand, 2015).\nAll pharmacokinetic parameters were computed by non-compartmental analysis using PK Solution 2.0 software (Summit Research Service, USA). […] The absolute oral bioavailability was calculated as (AUCp.o. ÷ dose p.o.) ÷ (AUCi.v. ÷ dose i.v.). Pharmacokinetic data are presented as mean ± standard deviation. Blood chemical parameters were analyzed by Mann–Whitney U-test to compare the significance of differences between pre-dosing and 24 h post-dosing, with a p-value of less than 0.05. All statistical analyses were calculated using SPSS version 16 (SPSS, Inc., USA). […] The data were analyzed with an unpaired Student’s t-test. A p-value of < 0.05 was considered statistically significant."}, "P-glycoprotein": {"system": "P-glycoprotein", "design": "method as in PMID 24091240", "settings": "affecting the level of absorbed compound; cited from earlier work"}}}
{"smiles": "C[C@H]1[C@H](C)CC[C@]2(C(=O)O[C@@H]3O[C@H](CO[C@@H]4O[C@H](CO)[C@@H](O[C@@H]5O[C@@H](C)[C@H](O)[C@@H](O)[C@H]5O)[C@H](O)[C@H]4O)[C@@H](O)[C@H](O)[C@H]3O)CC[C@]3(C)C(=CC[C@@H]4[C@@]5(C)C[C@@H](O)[C@H](O)[C@@](C)(CO)[C@@H]5[C@H](O)C[C@]43C)[C@H]12", "note": "[Madecassoside, madecassoside]", "values": [{"measurement": "Substrate for multidrug-resistant protein 2", "setting": "[1]", "result": "substrate"}, {"measurement": "ALT, Post-dose (24 h)", "setting": "[2]", "result": "24.00 ± 4.85", "unit": "U/L"}, {"measurement": "ALT, Pre-dose (0 h)", "setting": "[2]", "result": "23.80 ± 2.59", "unit": "U/L"}, {"measurement": "AST, Post-dose (24 h)", "setting": "[2]", "result": "63.20 ± 16.81", "unit": "U/L"}, {"measurement": "AST, Pre-dose (0 h)", "setting": "[2]", "result": "46.20 ± 4.87", "unit": "U/L"}, {"measurement": "Creatinine, Post-dose (24 h)", "setting": "[2]", "result": "0.67 ± 0.05", "unit": "mg/dL"}, {"measurement": "Creatinine, Pre-dose (0 h)", "setting": "[2]", "result": "0.64 ± 0.04", "unit": "mg/dL"}, {"measurement": "Physical appearance, Post-dose (24 h)", "setting": "[2]", "result": "Normal"}, {"measurement": "Physical appearance, Pre-dose (0 h)", "setting": "[2]", "result": "Normal"}, {"measurement": "Substrate for P-glycoprotein", "setting": "P-glycoprotein", "result": "substrate"}]}
